Measurements published in patent US20230365561A1, “BETA-LACTAMASE INHIBITORS AND THEIR PREPARATION” (NINGXIA ACADEMY OF AGRICUL TURE AND FORESTRY SCIENCES, priority 2020, published 2023).
Structures can show the parent of a compound that is named as a salt. Where two headings read alike, the source gives them in different places.

What was measured:
Format in all cases: cell-based
[1] = tested on: A. baumannii clinical isolate (strain 7); test: MIC by broth microdilution (alone and in combination with meropenam), strain 7; conditions: Acinetobacter baumannii, compound alone
Description: (§1) Compounds of the present invention alone, meropenam (MER) alone, and as a combination with test antibiotic (meropenam) were tested for antimicrobial activity by determing minimum inhibitory concentration (MIC, mg/L) using the broth microdilution method according to the guidelines of the Clinical Laboratories and Stansards Insitute (“Methods for Dilution Antimicrobial Suscetibility Tests for Bacterial that Grow Aerobiclly”, Approved standard, […]., Clinical and Laboratories Stanards Institute (CLSI) Document M7-A8, Wayne, Pa., USA, 2009). Meropenam as a test antibiotic compound was dissolved in DMSO. Meropenam was then diluted in microbial growth medium (Mueller-Hinton Broth II, cation adjusted) resulting in a final concention range of 0.125-64 mg/L in serial two-fold dilution. In all cases the filnal DMSO concentraion was less than 0.5%. Bacteria were added to 96-well microtitre plates containing the serial two-fold dilutions of the compoumds; the final cell density was appoximately 5x10^5 colony forming units/mL (CFU/mL). Plates were incubated at 37° C. for 18-24 hours and read visually. The MIC, i.e. the lowest concentration of the test compound that inhibited visible growth of the bacteria, was recorded. The same assay conditions were used when the compounds of present invention alone, and as a combination with test meropenam antibiotic compound was tested for minmum inhibitory concentration (MIC, mg/L). Whileest meropenam was serially diluted as descrribed above, a constant concentration of the present invention of 4 µg/mL was used.
(§2) Bacterial strains that were used to evaluate the antimicrobial activity using the MIC determination included but were not limited to E. coli clinical isolate (strain 1), E. coli 8739 (strain 2), K. pneumoniae clinical isolate (strain 3), K. pneumoniae 700603 (strain 4), E. cloacae clinical isolate (strain 5), E. cloacae 700323 (strain 6), A. baumannii clinical isolate (strain 7), A. baumannii 19606 (strain 8), P. aeruginosa clinical isolate (strain 9), P. aeruginosa 9027 (strain 10).

[2] = tested on: E. cloacae 700323 (strain 6); test: MIC by broth microdilution (alone and in combination with meropenam), strain 6; conditions: Enterobacter cloacae, compound alone
Description: as §1, §2

[3] = tested on: K. pneumoniae 700603 (strain 4); test: MIC by broth microdilution (alone and in combination with meropenam), strain 4; conditions: Klebsiella pneumoniae, compound alone
Description: as §1, §2

[4] = tested on: E. coli 8739 (strain 2); test: MIC by broth microdilution (alone and in combination with meropenam), strain 2; conditions: Escherichia coli, compound alone
Description: as §1, §2

[5] = tested on: K. pneumoniae clinical isolate (strain 3); test: MIC by broth microdilution (alone and in combination with meropenam), strain 3; conditions: Klebsiella pneumoniae, compound alone
Description: as §1, §2

[6] = tested on: E. cloacae clinical isolate (strain 5); test: MIC by broth microdilution (alone and in combination with meropenam), strain 5; conditions: Enterobacter cloacae, compound alone
Description: as §1, §2

[7] = tested on: A. baumannii 19606 (strain 8); test: MIC by broth microdilution (alone and in combination with meropenam), strain 8; conditions: Acinetobacter baumannii, compound alone
Description: as §1, §2

[8] = tested on: E. coli clinical isolate (strain 1); test: MIC by broth microdilution (alone and in combination with meropenam), strain 1; conditions: Escherichia coli, compound alone
Description: as §1, §2

[9] = tested on: P. aeruginosa clinical isolate (strain 9); test: MIC by broth microdilution (alone and in combination with meropenam), strain 9; conditions: Pseudomonas aeruginosa, compound alone
Description: as §1, §2

[10] = tested on: P. aeruginosa 9027 (strain 10); test: MIC by broth microdilution (alone and in combination with meropenam), strain 10; conditions: Pseudomonas aeruginosa, compound alone
Description: as §1, §2

[11] = read-out: MIC, antibacterial activity of example alone

Measured: MIC

N=C(NC(=O)c1ccc(C(F)(F)F)cc1)[C@@H]1CC[C@@H]2CN1C(=O)N2OS(=O)(=O)[O-].[Na+] [Ex.49, Sodium (2S,5R)-7-oxo-2-(N-(4-(trifluoromethyl)benzoyl)carbamimidoyl)-1,6-diazabicyclo[3.2.1]octan-6-yl Sulfate]
> 64 µg/mL: [1]; read-out: MIC | [2]; read-out: MIC | [3]; read-out: MIC | [4]; read-out: MIC | [5]; read-out: MIC | [6]; read-out: MIC | [7]; read-out: MIC | [8]; read-out: MIC | [9]; read-out: MIC | [10]; read-out: MIC

N=C(NC(=O)CC1CCOCC1)[C@@H]1CC[C@@H]2CN1C(=O)N2OS(=O)(=O)[O-].[Na+] [Ex.38, Sodium (2S,5R)-7-oxo-2-(N-(2-(tetrahydro-2H-pyran-4-yl)acetyl)carbamimidoyl)-1,6-diazabicyclo[3.2.1]octan-6-yl Sulfate]
> 64 µg/mL: [1]; [11] | [2]; [11] | [3]; [11] | [4]; [11] | [5]; [11] | [6]; [11] | [7]; [11] | [8]; [11] | [9]; [11] | [10]; [11]

CC(=O)NC(=N)[C@@H]1CC[C@@H]2CN1C(=O)N2OS(=O)(=O)O [Ex.9, (2S,5R)-2-(N-acetylcarbamimidoyl)-7-oxo-1,6-diazabicyclo[3.2.1]octan-6-yl Hydrogen Sulfate]
> 64 µg/mL: [1]; [11] | [2]; [11] | [3]; [11] | [4]; [11] | [5]; [11] | [6]; [11] | [7]; [11] | [8]; [11] | [9]; [11] | [10]; [11]

N=C(NC(=O)c1nc(-c2ccccc2)cs1)[C@@H]1CC[C@@H]2CN1C(=O)N2OS(=O)(=O)[O-].[Na+] [Ex.44, Sodium (2S,5R)-7-oxo-2-(N-(4-phenylthiazole-2-carbonyl)carbamimidoyl)-1,6-diazabicyclo[3.2.1]octan-6-yl Sulfate]
> 64 µg/mL: [1]; [11] | [2]; [11] | [3]; [11] | [4]; [11] | [5]; [11] | [6]; [11] | [7]; [11] | [8]; [11] | [9]; [11] | [10]; [11]

N=C(NC(=O)c1cscn1)[C@@H]1CC[C@@H]2CN1C(=O)N2OS(=O)(=O)[O-].[Na+] [Ex.16, Sodium (2S,5R)-7-oxo-2-(N-(thiazole-4-carbonyl)carbamimidoyl)-1,6-diazabicyclo[3.2.1]octan-6-yl Sulfate]
> 64 µg/mL: [1]; [11] | [2]; [11] | [3]; [11] | [4]; [11] | [5]; [11] | [6]; [11] | [7]; [11] | [8]; [11] | [9]; [11] | [10]; [11]

CC(=O)N1CCC[C@H](C(=O)NC(=N)[C@@H]2CC[C@@H]3CN2C(=O)N3OS(=O)(=O)[O-])C1.[Na+] [Ex.26, Sodium (2S,5R)-2-(N-((S)-1-acetylpiperidine-3-carbonyl)carbamimidoyl)-7-oxo-1,6-diazabicyclo[3.2.1]octan-6-yl Sulfate]
> 64 µg/mL: [1]; [11] | [2]; [11] | [3]; [11] | [4]; [11] | [5]; [11] | [6]; [11] | [7]; [11] | [8]; [11] | [9]; [11] | [10]; [11]

CN1CCC(C(=O)NC(=N)[C@@H]2CC[C@@H]3CN2C(=O)N3OS(=O)(=O)[O-])CC1.[Na+] [Ex.41, Sodium (2S,5R)-2-(N-(1-methylpiperidine-4-carbonyl)carbamimidoyl)-7-oxo-1,6-diazabicyclo[3.2.1]octan-6-yl Sulfate]
> 64 µg/mL: [1]; [11] | [2]; [11] | [3]; [11] | [4]; [11] | [5]; [11] | [6]; [11] | [7]; [11] | [8]; [11] | [9]; [11] | [10]; [11]
